# Literature values as cited in patent US20060205656A1 (priority 1999, published 2006).
# Conditions: in vivo
substance,measurement,value
contulakin-G,potency in inhibiting pain relative to neurotensin,significantly more potent than neurotensin
